# Test results reported in patent US20120309838A1, “USE OF AGOMELATINE IN OBTAINING MEDICAMENTS INTENDED FOR THE TREATMENT OF OBSESSIVE-COMPULSIVE DISORDER (OCD)” (Les Laboratoires Servier, priority 2010, published 2012).
# “Also recorded” adds a separate entry of the source.
# Columns and labels:
# [1] = system: Male mice of the NMRI strain; assay: Spontaneous marble burying in mice (model of Obsessive-Compulsive Disorder); format: in vivo; settings: for number of marbles buried: injected 30 minutes before test, 30 minutes' exploration, 24 marbles, carrier 20.2±0.6
# Description: Pre-clinical studies were carried out using a model of Obsessive-Compulsive Disorder (OCD), confirming the potential of agomelatine for treatment of this pathology. […] The study was carried out as follows. Male mice of the NMRI strain (Iffa-Credo, L'Arbresle, France), weighing 20-25 g on the day of the experiment, were placed individually in Macrolon boxes (30×18×19 cm) containing 5 cm of sawdust and covered with a perforated plexiglass plate. Twenty-four “cat's eye” glass marbles were evenly distributed on the sawdust at the periphery of the box. At the end of 30 minutes' free exploration, the animals were removed from the box and the number of buried marbles was counted. Agomelatine or the carrier (control) was injected 30 minutes before the start of the test.
# [2] = system: out-patients having a primary diagnosis of Obsessive-Compulsive Disorder; assay: Double-blind placebo-controlled clinical study in out-patients with Obsessive-Compulsive Disorder; format: in vivo, human; settings: 25 mg, 16 weeks of treatment
# Description: A clinical study comparing agomelatine with placebo was carried out in 80 out-patients more than 18 and less than 65 years in age, having a primary diagnosis of Obsessive-Compulsive Disorder according to the criteria of DSM-IV-TR. The patients must have, on entry into the study, a score of 20 or more on the Y-BOCS scale (Yale Brown Obsessive Compulsive Scale) and have been previously treated for their Obsessive-Compulsive Disorder with a serotonin reuptake inhibitor (SRI). The patients must have a depression severity score of less than 24 on the MADRS depression scale.
# The study is a double-blind placebo-controlled study for a duration of treatment of 16 weeks. The patients are randomised either into the placebo group or into the 25 mg agomelatine group with the possibility of increasing the dose of agomelatine to 50 mg in the event of failure to respond after 8 weeks of treatment (criterion for failure to respond: less than 20% reduction in the total Y-BOCS score).
# The main criterion for the assessment of efficacy is the reduction in the total score on the Y-BOCS scale. […] The presence of depressive symptoms and their course over time are analysed by the MADRS depression scale at the start of treatment and after 16 weeks of treatment. […]
# patients = assay: Tolerability observed in clinical trials on close to 3900 patients; format: in vivo, human
# Description: Amongst those effects, the discontinuation syndrome observed on stopping treatment with the customary psychotropic agents is absent in the case of agomelatine, which makes it a treatment of choice in this indication.
compound,measurement,setting,value
"COc1ccc2cccc(CCNC(C)=O)c2c1 [Agomelatine, N-[2-(7-methoxy-1-naphthyl)ethyl]acetamide]",number of marbles buried,"[1]; 10 mg/kg intraperitoneal, n=6",19.2±1.3
same,number of marbles buried,"[1]; 40 mg/kg intraperitoneal, n=6, P<0.05 vs carrier",15.3±3.0
same,number of marbles buried,"[1]; 80 mg/kg intraperitoneal, n=5, P<0.05 vs carrier",4.6±1.9
same,effect on spontaneous marble burying (in words),"[1]; intraperitoneal, doses of 10, 40 and 80 mg/kg",greatly reduced spontaneous marble burying in mice in dose-dependent manner; also recorded: statistically significant activity
same,efficacy in the treatment of Obsessive-Compulsive Disorder (in words),"[2]; possibly increased to 50 mg after 8 weeks, versus placebo, 80 out-patients",confirm the efficacy
same,acceptability profile (in words),[2]; possibly increased to 50 mg,good acceptability profile
same,tolerability (in words),patients; clinical trials on close to 3900 patients,excellent tolerability
same,discontinuation syndrome on stopping treatment,patients; compared with the customary psychotropic agents,absent
